Experimental data taken from patent US20250228239A1, “MOLECULES HAVING PESTICIDAL UTILITY, AND INTERMEDIATES, COMPOSITIONS, AND PROCESSES, RELATED THERETO” (priority 2024, published 2025).

Legend:
[1] = tested on: Beet Armyworm (Spodoptera exigua, LAPHEG); assay: Bioassays on Beet Armyworm (BAW), 128-well diet tray assay; type: in vivo; details: Spodoptera exigua; Table ABC: Biological Results; species BAW; read-out: BAW
Description: (§1) Certain molecules disclosed in this document were tested against BAW and CL using procedures described in the following examples. In the reporting of the results, the “BAW & CL Rating Table” was used (See Table Section).
Bioassays on BAW were conducted using a 128-well diet tray assay. One to five second instar BAW larvae were placed in each well (3 mL) of the diet tray that had been previously filled with 1 mL of artificial diet to which 50 μg/cm^2 of the test molecule (dissolved in 50 μL of 90:10 acetone-water mixture) had been applied (to each of eight wells) and then allowed to dry. Trays were covered with a clear self-adhesive cover, vented to allow gas exchange, and held at 25° C., 14:10 light-dark for five to seven days. Percent mortality was recorded for the larvae in each well; activity in the eight wells was then averaged. The results are indicated in the table entitled “Table ABC: Biological Results” (See Table Section).

[2] = tested on: Cabbage Looper (Trichoplusia ni, TRIPNI); assay: Bioassays on Cabbage Looper (CL), 128-well diet tray assay; type: in vivo; details: Trichoplusia ni; Table ABC: Biological Results; species CL; read-out: CL
Description: as §1
Bioassays on CL were conducted using a 128-well diet tray assay. One to five second instar CL larvae were placed in each well (3 mL) of the diet tray that had been previously filled with 1 mL of artificial diet to which 50 μg/cm^2 of the test molecule (dissolved in 50 μL of 90:10 acetone-water mixture) had been applied (to each of eight wells) and then allowed to dry. Trays were covered with a clear self-adhesive cover, vented to allow gas exchange, and held at 25° C., 14:10 light-dark for five to seven days. Percent mortality was recorded for the larvae in each well; activity in the eight wells was then averaged. The results are indicated in the table entitled “Table ABC: Biological Results” (See Table Section).

| SMILES | pest or weed control at 50 µg/cm2 [1] | pest or weed control at 50 µg/cm2 [2] |
| --- | --- | --- |
| CC(C)(C)OC(=O)Nc1c(F)ccc(NC(=O)c2cc(NC(=O)[C@H]3[C@H](c4cc(Br)cc(C(F)(F)F)c4)C3(Cl)Cl)ccc2Cl)c1F (relative stereo) [F1073, trans-tert-Butyl-(3-(5-(3-(3-bromo-5-(trifluoromethyl)phenyl)-2,2-dichlorocyclopropane-1-carboxamido)-2-chlorobenzamido)-2,6-difluorophenyl)carbamate] | 50 to 100% | 50 to 100% |
| Nc1c(F)ccc(NC(=O)c2cc(NC(=O)[C@H]3[C@H](c4cc(Cl)cc(Cl)c4)C3(F)F)ccc2Cl)c1F (relative stereo) [F1080, trans-N-(3-Amino-2,4-difluorophenyl)-2-chloro-5-(3-(3,5-dichlorophenyl)-2,2-difluorocyclopropane-1-carboxamido)benzamide] | 50 to 100% | 50 to 100% |
| O=C(Nc1ccc(F)cc1F)c1c(F)ccc(NC(=O)[C@H]2[C@H](c3ccc(F)c(Cl)c3)C2(Cl)Cl)c1F (relative stereo) [F1086, trans-3-(2,2-Dichloro-3-(3-chloro-4-fluorophenyl)cyclopropane-1-carboxamido)-N-(2,4-difluorophenyl)-2,6-difluorobenzamide] | 50 to 100% | 50 to 100% |
| CC(C)(C)OC(=O)Nc1c(F)ccc(NC(=O)c2cc(NC(=O)[C@H]3[C@H](c4cc(F)cc(C(F)(F)F)c4)C3(Cl)Cl)ccc2Cl)c1F (relative stereo) [F1092, trans-tert-Butyl-(3-(2-chloro-5-(2,2-dichloro-3-(3-fluoro-5-(trifluoromethyl)phenyl)cyclopropane-1-carboxamido)benzamido)-2,6-difluorophenyl)carbamate] | 50 to 100% | 50 to 100% |
| O=C(Nc1ccc(F)cc1F)c1cc(NC(=O)[C@H]2[C@H](c3cc(F)cc(Br)c3F)C2(Cl)Cl)ccc1Cl (relative stereo) [F1093, trans-5-(3-(3-bromo-2,5-difluorophenyl)-2,2-dichlorocyclopropane-1-carboxamido)-2-chloro-N-(2,4-difluorophenyl)benzamide] | 50 to 100% | 50 to 100% |
| CC(C)(C)OC(=O)Nc1c(F)ccc(NC(=O)c2cc(NC(=O)[C@H]3[C@H](c4cc(F)cc(Br)c4F)C3(Cl)Cl)ccc2Cl)c1F (relative stereo) [F1095, trans-tert-Butyl-(3-(5-(3-(3-bromo-2,5-difluorophenyl)-2,2-dichlorocyclopropane-1-carboxamido)-2-chlorobenzamido)-2,6-difluorophenyl)carbamate] | 50 to 100% | 50 to 100% |
| Nc1c(F)ccc(NC(=O)c2cc(NC(=O)[C@H]3[C@H](c4cc(F)cc(Br)c4F)C3(Cl)Cl)ccc2Cl)c1F (relative stereo) [F1098, trans-N-(3-Amino-2,4-difluorophenyl)-5-(3-(3-bromo-2,5-difluorophenyl)-2,2-dichlorocyclopropane-1-carboxamido)-2-chlorobenzamide] | 50 to 100% | 50 to 100% |
| CC(=O)Nc1ccc(NC(=O)c2c(F)ccc(NC(=O)[C@H]3[C@H](c4ccc(F)c(Cl)c4)C3(Cl)Cl)c2F)cc1 (relative stereo) [F1101, trans-N-(4-Acetamidophenyl)-3-(2,2-dichloro-3-(3-chloro-4-fluorophenyl)cyclopropane-1-carboxamido)-2,6-difluorobenzamide] | 50 to 100% | 50 to 100% |
| CC(=O)Nc1ccc(NC(=O)c2c(Cl)ccc(NC(=O)[C@H]3[C@H](c4ccc(F)c(Cl)c4)C3(Cl)Cl)c2Cl)cc1 (relative stereo) [F1102, trans-N-(4-Acetamidophenyl)-2,6-dichloro-3-(2,2-dichloro-3-(3-chloro-4-fluorophenyl)cyclopropane-1-carboxamido)benzamide] | 50 to 100% | 50 to 100% |
| CN(C(=O)c1c(Cl)ccc(NC(=O)[C@H]2[C@H](c3ccc(F)c(Cl)c3)C2(Cl)Cl)c1Cl)c1ccc(N)cc1 (relative stereo) [F1106, trans-N-(4-Aminophenyl)-2,6-dichloro-3-(2,2-dichloro-3-(3-chloro-4-fluorophenyl)cyclopropane-1-carboxamido)-N-methylbenzamide] | 50 to 100% | 0 to 50% |
| CC(C)(C)OC(=O)N(C(=O)OC(C)(C)C)c1c(F)ccc(NC(=O)c2c(F)ccc(NC(=O)[C@H]3[C@H](c4ccc(F)c(Cl)c4)C3(Cl)Cl)c2F)c1F (relative stereo) [F1109, trans-tert-Butyl-N-tert-butoxycarbonyl-N-[3-[[3-[[2,2-dichloro-3-(3-chloro-4-fluorophenyl)cyclopropanecarbonyl]amino]-2,6-difluorobenzoyl]amino]-2,6-difluorophenyl]carbamate] | 50 to 100% | 50 to 100% |
| Nc1c(F)ccc(NC(=O)c2c(Cl)ccc(NC(=O)[C@H]3[C@H](c4ccc(F)c(Cl)c4)C3(Cl)Cl)c2Cl)c1F (relative stereo) [F1110, trans-N-(3-Amino-2,4-difluorophenyl)-2,6-dichloro-3-(2,2-dichloro-3-(3-chloro-4-fluorophenyl)cyclopropane-1-carboxamido)benzamide] | 50 to 100% | 50 to 100% |
| Nc1c(F)ccc(NC(=O)c2c(F)ccc(NC(=O)[C@H]3[C@H](c4ccc(F)c(Cl)c4)C3(Cl)Cl)c2F)c1F (relative stereo) [F1111, trans-N-(3-Amino-2,4-difluorophenyl)-3-(2,2-dichloro-3-(3-chloro-4-fluorophenyl)cyclopropane-1-carboxamido)-2,6-difluorobenzamide] | 50 to 100% | 50 to 100% |
| CC(C)(C)OC(=O)Nc1c(F)ccc(NC(=O)c2cc(NC(=O)[C@H]3[C@H](c4ccc(Br)c(C(F)(F)F)c4)C3(Cl)Cl)ccc2Cl)c1F (relative stereo) [F1115, trans-tert-Butyl-(3-(5-(3-(4-bromo-3-(trifluoromethyl)phenyl)-2,2-dichlorocyclopropane-1-carboxamido)-2-chlorobenzamido)-2,6-difluorophenyl)carbamate] | 50 to 100% | 50 to 100% |
| O=C(Nc1cc(F)c(NC(=O)C(F)(F)F)c(F)c1)c1cc(NC(=O)[C@H]2[C@H](c3ccc(Cl)c(Cl)c3)C2(Cl)Cl)ccc1Cl (relative stereo) [F1120, trans-2-Chloro-5-(2,2-dichloro-3-(3,4-dichlorophenyl)cyclopropane-1-carboxamido)-N-(3,5-difluoro-4-(2,2,2-trifluoroacetamido)phenyl)benzamide] | 50 to 100% | 50 to 100% |
| O=C(Nc1ccc(F)cc1NC(=O)C(F)(F)F)c1cc(NC(=O)[C@H]2[C@H](c3ccc(Cl)c(Cl)c3)C2(Cl)Cl)ccc1Cl (relative stereo) [F1121, trans-2-Chloro-5-(2,2-dichloro-3-(3,4-dichlorophenyl)cyclopropane-1-carboxamido)-N-(4-fluoro-2-(2,2,2-trifluoroacetamido)phenyl)benzamide] | 50 to 100% | 50 to 100% |
| O=C(Nc1cc(F)c(NC(=O)C(F)F)c(F)c1)c1cc(NC(=O)[C@H]2[C@H](c3ccc(Cl)c(Cl)c3)C2(Cl)Cl)ccc1Cl (relative stereo) [F1122, trans-2-Chloro-5-(2,2-dichloro-3-(3,4-dichlorophenyl)cyclopropane-1-carboxamido)-N-(4-(2,2-difluoroacetamido)-3,5-difluorophenyl)benzamide] | 50 to 100% | 50 to 100% |
| O=C(Nc1ccc(F)cc1NC(=O)C(F)F)c1cc(NC(=O)[C@H]2[C@H](c3ccc(Cl)c(Cl)c3)C2(Cl)Cl)ccc1Cl (relative stereo) [F1123, trans-2-Chloro-5-(2,2-dichloro-3-(3,4-dichlorophenyl)cyclopropane-1-carboxamido)-N-(2-(2,2-difluoroacetamido)-4-fluorophenyl)benzamide] | 50 to 100% | 50 to 100% |
| CC(=O)Nc1c(F)cc(NC(=O)c2cc(NC(=O)[C@H]3[C@H](c4ccc(Cl)c(Cl)c4)C3(Cl)Cl)ccc2Cl)cc1F (relative stereo) [F1124, trans-N-(4-Acetamido-3,5-difluorophenyl)-2-chloro-5-(2,2-dichloro-3-(3,4-dichlorophenyl)cyclopropane-1-carboxamido)benzamide] | 50 to 100% | 50 to 100% |
| CC(=O)Nc1cc(F)ccc1NC(=O)c1cc(NC(=O)[C@H]2[C@H](c3ccc(Cl)c(Cl)c3)C2(Cl)Cl)ccc1Cl (relative stereo) [F1125, trans-N-(2-Acetamido-4-fluorophenyl)-2-chloro-5-(2,2-dichloro-3-(3,4-dichlorophenyl)cyclopropane-1-carboxamido)benzamide] | 50 to 100% | 50 to 100% |
